Data published in paper PMC13492380, “Dissecting Structural and Functional Determinants of Microtubules Stabilization through Guided Chemical Modulation” (Journal of Medicinal Chemistry, 2026).

How the values were obtained:
tubulin = test: Tubulin polymerization time course (absorbance 350 nm); format: biochemical, calf; conditions: 25 μM tubulin in PEDTA buffer, 35 μM compound, 37 °C
Description: Purified calf brain tubulin and chemicals were obtained as previously described. Tau-mCherry was expressed and purified as described previously. Human Kif5B-EGFP (amino acids 1-905), containing a C terminal fluorescent-tag followed by a 3C protease cleavage site and a 6 × His-tag was expressed and purified as in with some modifications. Prior to purification, cells were resuspended in 1:1 ratio of lysis buffer (30 mM HEPES pH 7.5, 300 mM NaCl, 0.5 mM ATP, 5% glycerol, 20 mM imidazole, […]) supplemented with 1× Protease inhibitor cocktail and benzonase to the final concentration of 25 units/ml. Cells were homogenized by repeated pipetting. Cells were lysed by spinning for 45 min at 40,000 rpm in 45 Ti fixed-angle rotor (Beckman Coulter) at 4 °C. The supernatant was incubated with pre-equilibrated HisPUR NiNTA agarose resin (Thermo Fisher Scientific) for 1 h in a tightly closed gravity-flow column (Thermo Fisher Scientific) at 4 °C by slowly rotating. Subsequently, the resin was washed once lysis buffer and then with buffer B (30 mM HEPES pH 7.5, 300 mM NaCl, 0.5 mM ATP, 5% glycerol, 30 mM imidazole, […]). The protein was eluted from the resin after an overnight cleavage of the 6 × His-tag with 3C HRV protease in lysis buffer at 4 °C. The eluted protein was further purified via size exclusion chromatography on Superdex 200 10/300 GL column equilibrated in exclusion buffer (30 mM HEPES pH 7.5, 300 mM NaCl, 0.5 mM ATP, 5% glycerol, […]). Peak fractions were analyzed via SDS-PAGE, pooled and the protein was concentrated with Amicon Ultra-15 Centrifugal Filter tubes (Millipore). Purified proteins were aliquoted, snap-frozen in liquid N2, and stored at −80 °C.
Tubulin polymerization assays were performed in PEDTA (10 mM NaPi, 1 mM EDTA, 0.1 mM GTP pH 7.0) or GAB (10 mM NaPi, 3.4 M glycerol, 1 mM EGTA, 0.1 mM GTP pH 6.7) buffers supplemented with 0.9 mM GTP and 4 mM MgCl2.

[1] = test system: Tau441 interaction with MTs in axon-like processes of neuronally differentiated PC12 cells; test: Fluorescence decay after photoactivation (FDAP) of PAGFP-Tau441; format: cell-based, human
Source text: Building on the role of Tau dynamics in axonal MT function, , we next used Tau as a structural sensitive neuronal MAP to assess whether drug-imposed MT lattice states alter MAP recognition. To this end, we initially performed fluorescence decay after photoactivation (FDAP) experiments to assess potential changes in the interaction of the longest human Central Nervous System Tau isoform (Tau441) with MTs in axon-like processes of model neurons. We tagged Tau at the N-terminus with photoactivatable GFP (PAGFP) and expressed it exogenously in PC12 cells differentiated into a neuronal phenotype (Figure A). After locally activating a subset of labeled Tau molecules in the middle of a process, we monitored FDAP over time in the activated region (Figure B). Tau gradually dissipated from the activation site.
To quantify changes in Tau’s effective diffusion constant (D eff) as a result of its dynamic interactions with MTs, we measured FDAP at various compound concentrations and fitted the resulting decay curves using a previously established reaction-diffusion model. […] Remarkably, the GDP-like MTs stabilized by compound 1b remain largely neutral with respect to Tau-MT interactions.
PC12 cells (originally obtained from J.A. Wagner, Harvard Medical School) were cultured in serum-DMEM (DMEM supplemented with 10% fetal bovine serum and antibiotics (100 U/ml penicillin and 100 μg/mL streptomycin)) at 37 °C with 10% CO2 in a humidified incubator. For live cell imaging, cells were transfected with the respective pRc/CMV expression vector using Lipofectamine 2000 (Thermo-Fisher Scientific, USA) as previously described. FDAP experiments were performed essentially as previously described. Briefly, cells expressing PAGFP-tagged Tau441 were plated on 35 mm glass-bottom culture dishes (MatTek, USA), transfected, and neuronally differentiated by medium exchange to serum-reduced DMEM containing 100 ng/mL 7S mouse NGF. After 3 days, the medium was exchanged to serum-reduced DMEM without phenol red with NGF, and the respective compound (or DMSO for carrier control) were added at the desired concentration. After 20 h, live cell imaging was performed using a laser scanning microscope (Nikon Eclipse Ti2-) equipped with a LU-N4 laser unit with 488 and 405 nm lasers and a Fluor 60× ultraviolet-corrected objective lens (NA 1.4) and a C2+scanner enclosed in an incubation chamber at 37 °C and 5% CO2. Photoactivation was performed with a 405 nm laser using the microscope software (NIS-Elements version AR 5.02.03). The following steps were performed in a photoactivation experiment. A transfected cell with a suitable process (minimum length 30 μm) was selected in the field of view (50 μm × 50 μm) and a preactivation image was saved at 488 nm excitation. The scan window was reduced to a 6-μm diameter activation spot (corresponding to 130 pixels), and photoactivation was performed in the center of the neurite using the 405 nm blue diode (laser intensity 1.0%; corresponding to an output of 30 μW) with two scans at a pixel dwell time of 4.08 μs (corresponding to a total activation time at the spot of 1.1 ms). The scan window was enlarged to the initial size, and the first scan was performed after 1 s with the 488 nm laser at the lowest practical laser intensity. Subsequent images were acquired at a rate of 1 frame/s. 112 images with a resolution of 256 × 256 pixels were collected per activated neurite. […] Effective diffusion constants were determined by fitting the fluorescence decay data from the photoactivation experiments using a one-dimensional diffusion model function for FDAP according to. All data sets were tested for normality using the D’Agostino-Pearson and Shapiro-Wilk tests. Statistical outliers were identified using the ROUT method. Equality was assessed using a F-test to compare variances. To compare different concentrations, statistically significant differences from control were determined by a one-way ANOVA with Dunnett’s post hoc test. […]

| SMILES | Polymerization v max (tubulin) | effect on Tau's effective diffusion constant (D eff) / Tau-MT interaction ([1]; PC12 cells, 20 h treatment) | unbound Tau population ([1]; 20 nM PTX (control 7.5%)) | decrease in the unbound Tau population ([1]; 20 nM PTX vs control) | concentration with notable reduction of Tau's D eff ([1]; PC12 cells, 20 h treatment) |
| --- | --- | --- | --- | --- | --- |
| COc1ccc2c(c1)CC(NC(=O)CCCCCCCC(=O)OC1CC3OCC3(OC(C)=O)C3C(OC(=O)c4ccccc4)C4(O)CC(OC(=O)C(O)C(NC(=O)c5ccccc5)c5ccccc5)C(C)=C(C(OC(C)=O)C(=O)C13C)C4(C)C)CC2 [1b, 7-O-((S)-9″-(7‴-Methoxy-1‴,2‴,3‴,4‴-tetrahydronaphthalen-2‴-yl)amino) −9″-oxononanoyl) Paclitaxel] | 1.44 × 10^–4 min^–1 | did not significantly alter Tau-MT interactions | – | – | – |
| CC(=O)O[C@H]1C(=O)[C@@]2(C)[C@H]([C@H](OC(=O)c3ccccc3)[C@]3(O)C[C@H](OC(=O)[C@H](O)[C@@H](NC(=O)c4ccccc4)c4ccccc4)C(C)=C1C3(C)C)[C@]1(OC(C)=O)CO[C@@H]1C[C@@H]2O [PTX, Paclitaxel] | 1.25 × 10^–2 min^–1 | significantly reduced Tau’s D eff | 4.4% | ~40% | 5 nM |
| CC(=O)OC1C(=O)C2(C)C(OC(=O)CCCCC(=O)OC3CCc4ccccc43)CC3OCC3(OC(C)=O)C2C(OC(=O)c2ccccc2)C2(O)CC(OC(=O)C(O)C(NC(=O)c3ccccc3)c3ccccc3)C(C)=C1C2(C)C (stereo not shown) [1a, 7-O-(6″-O-(2‴,3‴-Dihydroinden-1‴-yl)hexanedioyl) Paclitaxel] | 1.19 × 10^–3 min^–1 | increasing Tau’s D eff | – | – | – |
| CC(=O)O[C@H]1C(=O)[C@]2(C)[C@@H](OC(=O)[C@H](C)NC(=O)c3ccc(-c4c5cc(F)c(=O)cc-5oc5cc(O)c(F)cc45)c(C(=O)O)c3)C[C@H]3OC[C@@]3(OC(C)=O)[C@H]2[C@H](OC(=O)c2ccccc2)[C@]2(O)C[C@H](OC(=O)[C@H](O)[C@@H](NC(=O)c3ccccc3)c3ccccc3)C(C)=C1C2(C)C [FTX2, Flutax2] | 1.42 × 10^–3 min^–1 | – | – | – | – |
